Measured values taken from ChEMBL document CHEMBL5120880, “Peptidomimetics: An Overview of Recent Medicinal Chemistry Efforts toward the Discovery of Novel Small Molecule Inhibitors” (J Med Chem, 2022).
≈ marks a conversion by molar mass, not a printed value. Square brackets hold non-standard residues; d marks the D form. Peptide text beside a SMILES is read from it. * marks the point of attachment. Pro(cis-4-OPh) = O=C(O)[C@@H]1C[C@H](Oc2ccccc2)CN1; Bip = N[C@@H](Cc1ccc(-c2ccccc2)cc1)C(=O)O; X1 = CCCCCCCCCCCCCCCCCCS(=O)(=O)CCN*; Tle = CC(C)(C)[C@H](N)C(=O)O; X2 = CCCCCCCCCCCCCCCCCCSCCN*; NMeA = CN[C@@H](C)C(=O)O

Columns and labels:
Hepatitis C virus [1] = assay: Antiviral activity against HCV genotype 1b/3a NS5A infected in human Huh-7 cells by phenotypic assay; assay type: functional, organism-based, Hepacivirus hominis
Hepatitis C virus [2] = assay: Antiviral activity against HCV genotype 1b/6a NS5A infected in human Huh-7 cells by phenotypic assay; assay type: functional, organism-based, Hepacivirus hominis
MDA-MB-231 = assay: Cytotoxicity against human MDA-MB-231 cells assessed as cell growth inhibition; assay type: functional, cell-based
SW480 = assay: Cytotoxicity against human SW480 cells assessed as cell growth inhibition; assay type: functional, cell-based
BT-20 = assay: Cytotoxicity against human BT-20 cells assessed as cell growth inhibition; assay type: functional, cell-based
MDA-MB-468 = assay: Cytotoxicity against human MDA-MB-468 cells assessed as cell growth inhibition; assay type: functional, cell-based
A549 = assay: Cytotoxicity against human A549 cells assessed as cell growth inhibition; assay type: functional, cell-based
HCT-116 = assay: Cytotoxicity against human HCT-116 cells assessed as cell growth inhibition; assay type: functional, cell-based
Hepatitis C virus [3] = assay: Antiviral activity against HCV; assay type: functional, organism-based, Hepacivirus hominis
HCC1954 = assay: Antitumor activity against human HCC1954 cells assessed as cell growth inhibition; assay type: functional, cell-based
BT-474 = assay: Antitumor activity against human BT-474 cells assessed as cell growth inhibition; assay type: functional, cell-based
Hep 3B2 = assay: Antitumor activity against human Hep3B cells assessed as cell growth inhibition; assay type: functional, cell-based
NALM-6 = assay: Antitumor activity against human NALM-6 cells assessed as cell growth inhibition; assay type: functional, cell-based
FaDu = assay: Antitumor activity against human FaDu cells assessed as cell growth inhibition; assay type: functional, cell-based
Murine hepatitis virus = assay: microbe, parasite or virus in culture; conditions: Murine coronavirus
SARS-CoV = assay: microbe, parasite or virus in culture; conditions: Severe acute respiratory syndrome-related coronavirus
SARS-CoV-2 [4] = assay: Antiviral activity against SARS-CoV-2 by cell based assay; assay type: functional, organism-based; conditions: Severe acute respiratory syndrome coronavirus 2
SARS-CoV-2 [5] = assay: microbe, parasite or virus in culture; conditions: Severe acute respiratory syndrome coronavirus 2
[6] = tested on: Middle East respiratory syndrome-related coronavirus; assay: microbe, parasite or virus in culture
[7] = tested on: Feline infectious peritonitis virus; assay: microbe, parasite or virus in culture; conditions: Alphacoronavirus 1
HeLa = assay: Antiproliferative activity against human HeLA cells by MTT assay; assay type: functional, cell-based
N2a = assay: Antiproliferative activity against mouse N2a cells by MTT assay; assay type: functional, cell-based
[8] = target: Catenin beta-1/Cadherin-1 (Homo sapiens, UniProt P12830+P35222); assay: Binding affinity to beta-catenin/E-cadherin (unknown origin) assessed as inhibition constant; assay type: protein assay
[9] = Binding affinity to beta-catenin/APC (unknown origin) assessed as inhibition constant; design: species or system Homo sapiens
Escherichia coli = assay: Antibacterial activity against Escherichia coli AG100 assessed as minimal inhibitory concentration; assay type: functional
[10] = target: T1, Enoyl-[acyl-carrier-protein] reductase [NADH] FabI (Escherichia coli K-12, UniProt P0AEK4); assay: Inhibition of Escherichia coli […] assessed as measuring NADH consumption rate
T1 sequence (P0AEK4 whole entry): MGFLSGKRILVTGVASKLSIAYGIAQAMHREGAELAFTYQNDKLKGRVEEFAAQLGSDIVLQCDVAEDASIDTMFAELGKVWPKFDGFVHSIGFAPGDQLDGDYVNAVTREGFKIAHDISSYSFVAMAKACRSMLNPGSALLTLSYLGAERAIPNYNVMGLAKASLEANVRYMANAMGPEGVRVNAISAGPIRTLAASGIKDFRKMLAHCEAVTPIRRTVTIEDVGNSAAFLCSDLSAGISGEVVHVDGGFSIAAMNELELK

[11] = Inhibition of Acinetobacter baumannii […] assessed as measuring NADH consumption rate
Acinetobacter baumannii = assay: Antibacterial activity against Acinetobacter baumannii ATCC BAA1605 assessed as minimal inhibitory concentration; assay type: functional
[12] = tested on: Klebsiella pneumoniae subsp. ozaenae; assay: Antibacterial activity against Klebsiella pneumoniae A6030827 assessed as minimal inhibitory concentration; assay type: functional
Staphylococcus aureus = assay: Antibacterial activity against Staphylococcus aureus ATCC 29213 assessed as minimal inhibitory concentration; assay type: functional
[13] = tested on: Middle East respiratory syndrome-related coronavirus; assay: Antiviral activity against MERS-CoV by cell based assay; assay type: functional, organism-based
[14] = Inhibition of FITC-labeled NS4A binding to HCV NS3 (4 to 182 residues) expressed in Escherichia coli […] (DE3) incubated for 60 mins by fluorescence anisotropy based competition assay; design: species or system Hepacivirus hominis
[15] = Antitumor activity against human UM-SCC-5 cells assessed as cell growth inhibition; assay type: functional, cell-based
[16] = Antitumor activity against human UM-SCC-38 cells assessed as cell growth inhibition; assay type: functional, cell-based

Catenin beta-1/Cadherin-1, sequence (P35222 whole entry): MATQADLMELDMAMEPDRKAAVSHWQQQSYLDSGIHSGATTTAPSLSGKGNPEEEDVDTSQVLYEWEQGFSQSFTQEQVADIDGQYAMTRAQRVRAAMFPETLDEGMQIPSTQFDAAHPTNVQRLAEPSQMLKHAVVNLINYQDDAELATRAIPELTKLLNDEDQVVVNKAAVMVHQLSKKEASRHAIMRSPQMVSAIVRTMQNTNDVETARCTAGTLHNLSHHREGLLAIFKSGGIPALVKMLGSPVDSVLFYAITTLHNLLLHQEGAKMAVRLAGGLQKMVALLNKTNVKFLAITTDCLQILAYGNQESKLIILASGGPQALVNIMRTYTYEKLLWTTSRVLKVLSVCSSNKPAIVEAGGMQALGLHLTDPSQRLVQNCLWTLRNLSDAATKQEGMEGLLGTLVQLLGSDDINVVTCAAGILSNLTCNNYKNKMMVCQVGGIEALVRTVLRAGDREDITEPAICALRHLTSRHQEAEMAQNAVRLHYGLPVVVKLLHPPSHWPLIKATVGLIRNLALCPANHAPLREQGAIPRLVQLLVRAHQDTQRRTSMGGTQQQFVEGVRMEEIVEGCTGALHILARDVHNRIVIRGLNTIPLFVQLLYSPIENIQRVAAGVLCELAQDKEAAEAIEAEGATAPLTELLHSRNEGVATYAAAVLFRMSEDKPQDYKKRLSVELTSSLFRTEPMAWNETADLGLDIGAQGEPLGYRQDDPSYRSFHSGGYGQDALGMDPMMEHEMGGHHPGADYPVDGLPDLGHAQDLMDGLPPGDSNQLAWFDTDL
Catenin beta-1/Cadherin-1, sequence (P12830 whole entry): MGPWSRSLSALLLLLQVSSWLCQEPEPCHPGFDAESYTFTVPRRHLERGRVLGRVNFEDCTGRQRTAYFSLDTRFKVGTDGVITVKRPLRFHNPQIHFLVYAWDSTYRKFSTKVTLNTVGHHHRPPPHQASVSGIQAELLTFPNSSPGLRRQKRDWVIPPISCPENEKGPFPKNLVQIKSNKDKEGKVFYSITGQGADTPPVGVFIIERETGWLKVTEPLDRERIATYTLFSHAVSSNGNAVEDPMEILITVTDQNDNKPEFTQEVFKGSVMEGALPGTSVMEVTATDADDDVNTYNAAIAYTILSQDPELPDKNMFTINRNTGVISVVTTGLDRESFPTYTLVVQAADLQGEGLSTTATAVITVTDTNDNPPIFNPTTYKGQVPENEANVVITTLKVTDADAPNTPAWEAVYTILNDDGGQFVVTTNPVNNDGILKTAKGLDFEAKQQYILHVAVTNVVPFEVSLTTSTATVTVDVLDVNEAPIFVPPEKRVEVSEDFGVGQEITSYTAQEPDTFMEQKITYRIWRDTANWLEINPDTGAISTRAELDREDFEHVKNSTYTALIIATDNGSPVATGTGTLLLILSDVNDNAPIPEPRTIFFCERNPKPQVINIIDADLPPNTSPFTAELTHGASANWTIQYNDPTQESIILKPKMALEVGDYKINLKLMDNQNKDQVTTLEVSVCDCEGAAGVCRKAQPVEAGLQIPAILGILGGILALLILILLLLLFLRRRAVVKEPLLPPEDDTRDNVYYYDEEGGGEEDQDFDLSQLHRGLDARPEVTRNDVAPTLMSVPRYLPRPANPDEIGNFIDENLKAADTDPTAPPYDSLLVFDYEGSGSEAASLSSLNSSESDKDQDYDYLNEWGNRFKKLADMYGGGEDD

## COC(=O)N[C@H](C(=O)N1CCC[C@H]1c1ncc(-c2ccc(-c3ccc(-c4cnc([C@@H]5CCCN5C(=O)[C@@H](NC(=O)OC)C(C)C)[nH]4)cc3)cc2)[nH]1)C(C)C
Hepatitis C virus [1]
  EC50: 0.105 nM
Hepatitis C virus [2]
  EC50: 0.047 nM

## CCOC(=O)CC[C@H](NC(=O)[C@H](Cc1nn[nH]n1)NC(=O)[C@H](Cc1ccc2ccccc2c1)NC(=O)c1cc2cc(Cl)ccc2[nH]1)C(=O)Nc1ccc(OC(F)(F)F)cc1
MDA-MB-231
  IC50: 12300 nM
SW480
  IC50: 14100 nM
BT-20
  IC50: 16500 nM
MDA-MB-468
  IC50: 7250 nM
A549
  IC50: 86400 nM
HCT-116
  IC50: 69400 nM

## CC[C@@H]1[C@@H]2CN(C(=O)[C@H](C(C)(C)C)NC(=O)O[C@@H]3C[C@H]3CCCCC(F)(F)c3nc4ccc(OC)cc4nc3O2)[C@@H]1C(=O)N[C@]1(C(=O)NS(=O)(=O)C2(C)CC2)C[C@H]1C(F)F
Hepatitis C virus [3]
  EC50: 70 nM

## NC(=O)CC[C@H](NC(=O)[C@H](Cc1nn[nH]n1)NC(=O)[C@H](Cc1ccc2ccccc2c1)NC(=O)c1cc2cc(Cl)ccc2[nH]1)C(=O)Nc1ccc(OC(F)(F)F)cc1
MDA-MB-231
  IC50: 34300 nM
SW480
  IC50: 28200 nM
BT-20
  IC50: 38400 nM
MDA-MB-468
  IC50: 29200 nM
A549
  IC50: 60300 nM
HCT-116
  IC50: 63900 nM

## CCCCCCCCCCCCCCc1cccc(O[C@H]2C[C@@H](C(=O)NCC(c3ccccc3)c3ccccc3)N(C(=O)[C@@H](NC(=O)[C@H](C)NC)C(C)(C)C)C2)c1
HCC1954
  EC50: 19800 nM
BT-474
  EC50: 7000 nM
Hep 3B2
  EC50: 2200 nM
NALM-6
  EC50: 11100 nM
FaDu
  EC50: 1500 nM

## CC(C)C[C@H](NC(=O)OC1CCC(F)(F)CC1)C(=O)N[C@H](C=O)C[C@H]1CCNC1=O
Murine hepatitis virus
  EC50: 80 nM
SARS-CoV
  IC50: 2300 nM
SARS-CoV-2 [4]
  EC50: 110 nM
SARS-CoV-2 [5]
  IC50: 1500 nM
[6]
  IC50: 70 nM
[7]
  EC50: 120 nM

## CCCCC1CCC(OC(=O)N[C@@H](CC(C)C)C(=O)N[C@H](C=O)C[C@H]2CCNC2=O)CC1 (some centres not stated)
Murine hepatitis virus
  EC50: 120 nM
SARS-CoV
  IC50: 900 nM
SARS-CoV-2 [4]
  EC50: 100 nM
SARS-CoV-2 [5]
  IC50: 800 nM
[6]
  IC50: 150 nM
[7]
  EC50: 220 nM

## COC(=O)N[C@H](C(=O)N1CCC[C@H]1C(=O)Nc1cccc(-c2ccc3c(c2)C(F)(F)c2cc(-c4cnc([C@@H]5CCCN5C(=O)[C@@H](NC(=O)OC)C(C)C)[nH]4)ccc2-3)c1)C(C)C
Hepatitis C virus [1]
  EC50: > 0.5 nM
Hepatitis C virus [3]
  EC50: < 0.05 nM
Hepatitis C virus [2]
  EC50: 0.275 nM

## COC(=O)N[C@H](C(=O)N1CCC[C@H]1C(=O)Nc1cc2ccc1CCc1ccc(cc1NC(=O)[C@@H]1CCCN1C(=O)[C@@H](NC(=O)OC)C(C)C)CC2)C(C)C
Hepatitis C virus [1]
  EC50: > 0.5 nM
Hepatitis C virus [3]
  EC50: 0.08 nM
Hepatitis C virus [2]
  EC50: > 0.5 nM

## O=C(Cc1ccccc1)NC1CC2CN(Cc3ccccc3)CC3C2CC=C(COC(=O)Cc2ccccc2)C13 (configuration not stated)
HeLa
  EC50: 10300 nM
N2a
  EC50: 2100 nM

## CCCCCCCCCCCCCCCCCCS[C@H]1C[C@@H](C(=O)NCC(c2ccccc2)c2ccccc2)N(C(=O)[C@@H](NC(=O)[C@H](C)NC)C(C)(C)C)C1
HCC1954
  EC50: 17500 nM
BT-474
  EC50: 10800 nM
Hep 3B2
  EC50: 12400 nM
NALM-6
  EC50: 26900 nM
FaDu
  EC50: 5400 nM

## O=C(O)CC[C@H](NC(=O)[C@H](Cc1nnn[nH]1)NC(=O)[C@H](Cc1ccc2ccccc2c1)NC(=O)c1cc2c(Cl)cccc2[nH]1)C(=O)Nc1ccc(OC(F)(F)F)cc1
[8]
  Ki: 13000 nM
[9]
  Ki: 173000 nM

## Cc1c(CN(C)C(=O)/C=C/c2cnc3c(c2)CC[C@@H](N)C(=O)N3)oc2ccccc12.Cl
Escherichia coli
  MIC: ≤ 4 µg/mL
[10]
  IC50: < 10 nM
[11]
  IC50: < 10 nM
Acinetobacter baumannii
  MIC: ≤ 4 µg/mL
[12]
  MIC: ≤ 4 µg/mL
Staphylococcus aureus
  MIC: ≤ 4 µg/mL

## Cc1c(CN(C)C(=O)/C=C/c2cnc3c(c2)NC[C@@H](N)C(=O)N3)oc2ccccc12.Cl
Escherichia coli
  MIC: < 4 µg/mL
[10]
  IC50: < 10 nM
[11]
  IC50: < 10 nM
Acinetobacter baumannii
  MIC: < 4 µg/mL
[12]
  MIC: < 4 µg/mL
Staphylococcus aureus
  MIC: < 4 µg/mL

## CCCC1CCC(OC(=O)N[C@@H](CC(C)C)C(=O)N[C@H](C=O)C[C@H]2CCNC2=O)CC1 (some centres not stated)
Murine hepatitis virus
  EC50: 130 nM
[13]
  EC50: 50 nM
SARS-CoV-2 [4]
  EC50: 100 nM
SARS-CoV-2 [5]
  IC50: 1600 nM
[7]
  EC50: 120 nM

## Cc1oc2c(N)cccc2c1CN(C)C(=O)/C=C/c1cnc2c(c1)CCC(N1CCCC1)C(=O)N2 (configuration not stated)
Escherichia coli
  MIC: 8 µg/mL (≈ 16.9 µM)
[10]
  IC50: < 10 nM
Acinetobacter baumannii
  MIC: ≤ 4 µg/mL
Staphylococcus aureus
  MIC: ≤ 4 µg/mL

## COC(=O)N[C@H](C(=O)N1CCC[C@@H]1c1ncc(-c2cccc(-c3c4c(c(-c5cccc(-c6cnc([C@@H]7CCCN7C(=O)[C@H](NC(=O)OC)c7ccccc7)[nH]6)c5)c5c3C(C)(C)CC5)C(C)(C)CC4)c2)[nH]1)c1ccccc1
Hepatitis C virus [1]
  EC50: 0.053 nM

## Cc1c(CN(C)C(=O)/C=C/c2cnc3c(c2)CC[C@@H](N2CCCC2)C(=O)N3)oc2ccccc12
Escherichia coli
  MIC: ≤ 4 µg/mL
[10]
  IC50: < 10 nM
[11]
  IC50: < 10 nM
Acinetobacter baumannii
  MIC: ≤ 4 µg/mL
[12]
  MIC: ≤ 4 µg/mL
Staphylococcus aureus
  MIC: ≤ 4 µg/mL

## COC(=O)N[C@@H](C(=O)N1CCC[C@H]1C(=O)Nc1cncc(-c2c3c(c(-c4cncc(NC(=O)[C@@H]5CCCN5C(=O)[C@H](NC(=O)OC)c5ccccc5)c4)c4c2C(C)(C)CC4)C(C)(C)CC3)c1)c1ccccc1
Hepatitis C virus [2]
  EC50: > 0.5 nM

## Cc1c(CN(C)C(=O)/C=C/c2cnc3c(c2)NC[C@@H](N2C[C@@H](C)O[C@@H](C)C2)C(=O)N3)oc2ccccc12
[10]
  IC50: < 10 nM
Acinetobacter baumannii
  MIC: ≤ 4 µg/mL
[12]
  MIC: 16 µg/mL (≈ 31.8 µM)
Staphylococcus aureus
  MIC: ≤ 4 µg/mL

## CCCCCCNC(=O)c1ncc(C(=O)NCCCCNC(=N)N)[nH]1
[14]
  IC50: 4700 nM

## CCCCCNC(=O)c1ncc(C(=O)NCCCCNC(=N)N)[nH]1
[14]
  IC50: 1910 nM

## CNC(=O)CNC(=O)c1ncc(C(=O)NCCCCNC(=N)N)[nH]1
[14]
  IC50: 1910 nM

## CCCCCCCCCCCCCCCCCCS(=O)(=O)CCNC(=O)[C@H](Cc1ccc(-c2ccccc2)cc1)NC(=O)[C@@H]1C[C@H](Oc2ccccc2)CN1C(=O)[C@@H](NC(=O)[C@H](C)NC)C(C)(C)C (H-[NMeA][Tle][Pro(cis-4-OPh)][Bip]-X1)
[15]
  EC50: 730 nM
[16]
  EC50: 140 nM

## CCCCCCCCCCCCCCCCCCSCCNC(=O)[C@H](Cc1ccc(-c2ccccc2)cc1)NC(=O)[C@@H]1C[C@H](Oc2ccccc2)CN1C(=O)[C@@H](NC(=O)[C@H](C)NC)C(C)(C)C (H-[NMeA][Tle][Pro(cis-4-OPh)][Bip]-X2)
[15]
  EC50: 960 nM
[16]
  EC50: 330 nM
